According to publication PMC12827894, “Structure-guided design of picomolar-level macrocyclic TRPC5 channel inhibitors with antidepressant activity” (Acta Pharmaceutica Sinica. B, 2025):

Assays:
[1] = target: T1, TRPC5 (Homo sapiens, UniProt Q9UL62); assay: cell-based
T1 sequence (Q9UL62 1-973): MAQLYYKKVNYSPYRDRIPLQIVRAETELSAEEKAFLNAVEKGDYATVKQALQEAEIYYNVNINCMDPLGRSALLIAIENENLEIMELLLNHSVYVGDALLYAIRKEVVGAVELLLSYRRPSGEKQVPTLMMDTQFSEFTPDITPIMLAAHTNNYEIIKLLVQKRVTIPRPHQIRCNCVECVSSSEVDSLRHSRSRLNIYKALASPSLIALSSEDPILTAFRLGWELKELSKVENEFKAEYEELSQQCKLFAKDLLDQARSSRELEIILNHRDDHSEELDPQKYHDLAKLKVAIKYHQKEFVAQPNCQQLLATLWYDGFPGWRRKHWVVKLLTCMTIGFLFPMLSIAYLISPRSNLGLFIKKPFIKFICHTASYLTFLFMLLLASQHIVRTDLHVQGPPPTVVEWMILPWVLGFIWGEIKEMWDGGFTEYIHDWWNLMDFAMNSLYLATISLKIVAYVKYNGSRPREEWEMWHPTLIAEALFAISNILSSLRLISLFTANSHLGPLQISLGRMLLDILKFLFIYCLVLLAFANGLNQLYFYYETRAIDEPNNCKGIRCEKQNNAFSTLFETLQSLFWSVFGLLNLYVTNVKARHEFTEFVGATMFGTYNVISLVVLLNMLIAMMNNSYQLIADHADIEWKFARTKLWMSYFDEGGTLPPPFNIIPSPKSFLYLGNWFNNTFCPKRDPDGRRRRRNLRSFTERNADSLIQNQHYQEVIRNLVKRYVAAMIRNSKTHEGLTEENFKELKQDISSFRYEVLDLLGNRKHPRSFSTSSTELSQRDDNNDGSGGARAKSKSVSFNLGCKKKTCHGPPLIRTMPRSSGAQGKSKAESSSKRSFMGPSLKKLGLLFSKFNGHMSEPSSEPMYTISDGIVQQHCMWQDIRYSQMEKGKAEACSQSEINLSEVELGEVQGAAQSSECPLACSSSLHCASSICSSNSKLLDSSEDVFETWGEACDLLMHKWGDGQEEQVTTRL

[2] = target: V1a (Homo sapiens, UniProt P37288); assay: cell-based; details: read-out: Antagonist JDIC-127 @10 μmol/L
V1a, sequence (P37288 whole entry): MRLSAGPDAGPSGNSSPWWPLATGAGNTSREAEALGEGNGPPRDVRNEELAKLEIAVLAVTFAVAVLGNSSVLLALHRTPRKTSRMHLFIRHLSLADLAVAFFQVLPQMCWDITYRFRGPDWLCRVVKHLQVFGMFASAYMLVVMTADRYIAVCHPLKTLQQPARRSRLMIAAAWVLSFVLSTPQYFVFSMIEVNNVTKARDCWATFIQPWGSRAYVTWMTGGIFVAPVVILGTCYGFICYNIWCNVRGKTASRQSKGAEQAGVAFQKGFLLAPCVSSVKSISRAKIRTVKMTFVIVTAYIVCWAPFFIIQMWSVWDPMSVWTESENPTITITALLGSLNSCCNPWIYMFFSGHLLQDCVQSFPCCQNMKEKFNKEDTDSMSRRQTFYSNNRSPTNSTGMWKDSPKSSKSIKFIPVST

[3] = target: T2, TRPC1/5 (Homo sapiens, UniProt P48995+Q9UL62); assay: Whole-cell patch-clamp, TRPC1/5 heteromer, 100 nmol/L EA; type: cell-based; details: read-out: IC50, TRPC1/5
T2 construct: full-length wild-type or mutant TRPC5 was cloned into a pcDNA3.1 vector; expressed in transfected cells; host or cells: HEK293T
T2 sequence (P48995 whole entry, one chain of several): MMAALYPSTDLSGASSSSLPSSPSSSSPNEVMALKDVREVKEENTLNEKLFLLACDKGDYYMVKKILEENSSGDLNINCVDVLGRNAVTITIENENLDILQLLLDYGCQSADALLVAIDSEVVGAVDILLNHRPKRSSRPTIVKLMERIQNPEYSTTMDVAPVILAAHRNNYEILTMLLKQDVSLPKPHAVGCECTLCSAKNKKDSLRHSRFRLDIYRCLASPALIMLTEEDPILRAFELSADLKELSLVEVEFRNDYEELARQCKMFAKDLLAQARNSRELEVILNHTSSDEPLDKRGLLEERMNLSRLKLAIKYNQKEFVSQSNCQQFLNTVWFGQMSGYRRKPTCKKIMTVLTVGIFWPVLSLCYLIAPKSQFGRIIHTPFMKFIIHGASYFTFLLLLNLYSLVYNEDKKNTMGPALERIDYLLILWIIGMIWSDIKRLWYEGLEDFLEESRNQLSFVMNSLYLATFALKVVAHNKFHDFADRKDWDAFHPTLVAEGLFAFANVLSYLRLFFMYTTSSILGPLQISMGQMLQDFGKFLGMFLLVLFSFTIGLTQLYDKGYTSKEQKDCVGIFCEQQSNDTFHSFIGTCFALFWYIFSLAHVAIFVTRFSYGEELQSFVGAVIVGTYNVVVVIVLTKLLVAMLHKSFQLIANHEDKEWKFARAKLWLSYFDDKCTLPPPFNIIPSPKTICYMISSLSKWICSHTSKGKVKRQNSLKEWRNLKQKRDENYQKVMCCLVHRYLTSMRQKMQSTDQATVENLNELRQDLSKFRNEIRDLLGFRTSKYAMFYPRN
Description: Given that TRPC4 and TRPC5 are highly similar and often form heteromeric with TRPC1, we evaluated JDIC-127's activity on TRPC4, TRPC1/4, and TRPC1/5 using whole-cell patch-clamp recordings under agonist stimulation with 100 nmol/L EA in HEK293T cells. […].
For electrophysiological activity testing of compounds against TRPC4 and TRPC5, stably expressed TRPC5 or TRPC4 cells were used for whole-cell patch-clamp recordings, employing a HEKA EPC10 amplifier and […] software (https://www.heka.com/downloads/downloads_main.html#down_patchmaster). Prior to recording, cells were induced with 1 μg/mL tetracycline for 24 h. For TRPC1/4 or TRPC1/5 heteromers, plasmids TRPC1 and TRPC5 or TRPC1 and TRPC4 were co-transfected into HEK293T cells. After 48 to 72 h of transfection, testing was performed. A 1-s ramp protocol from −100 to +100 mV at 0.2 Hz was applied, as previously described. The extracellular solution consisted of 140 mmol/L NaCl, 1 mmol/L MgCl2, 2 mmol/L CaCl2, 10 mmol/L Hepes, 5 mmol/L KCl, and 10 mmol/L D-glucose, with pH adjusted to 7.4 using NaOH. […] The half-maximal inhibitory concentration (IC50) of drugs was determined by recording currents at a +100 mV pulse and analyzing current amplitudes at varying drug concentrations, with IC50 values calculated using the Hill equation. […]

[4] = target: TRPM3 (Homo sapiens, UniProt Q9HCF6); assay: Patch-clamp selectivity, TRPM3; type: cell-based; details: 10 μmol/L
TRPM3, sequence (Q9HCF6 whole entry, species assumed): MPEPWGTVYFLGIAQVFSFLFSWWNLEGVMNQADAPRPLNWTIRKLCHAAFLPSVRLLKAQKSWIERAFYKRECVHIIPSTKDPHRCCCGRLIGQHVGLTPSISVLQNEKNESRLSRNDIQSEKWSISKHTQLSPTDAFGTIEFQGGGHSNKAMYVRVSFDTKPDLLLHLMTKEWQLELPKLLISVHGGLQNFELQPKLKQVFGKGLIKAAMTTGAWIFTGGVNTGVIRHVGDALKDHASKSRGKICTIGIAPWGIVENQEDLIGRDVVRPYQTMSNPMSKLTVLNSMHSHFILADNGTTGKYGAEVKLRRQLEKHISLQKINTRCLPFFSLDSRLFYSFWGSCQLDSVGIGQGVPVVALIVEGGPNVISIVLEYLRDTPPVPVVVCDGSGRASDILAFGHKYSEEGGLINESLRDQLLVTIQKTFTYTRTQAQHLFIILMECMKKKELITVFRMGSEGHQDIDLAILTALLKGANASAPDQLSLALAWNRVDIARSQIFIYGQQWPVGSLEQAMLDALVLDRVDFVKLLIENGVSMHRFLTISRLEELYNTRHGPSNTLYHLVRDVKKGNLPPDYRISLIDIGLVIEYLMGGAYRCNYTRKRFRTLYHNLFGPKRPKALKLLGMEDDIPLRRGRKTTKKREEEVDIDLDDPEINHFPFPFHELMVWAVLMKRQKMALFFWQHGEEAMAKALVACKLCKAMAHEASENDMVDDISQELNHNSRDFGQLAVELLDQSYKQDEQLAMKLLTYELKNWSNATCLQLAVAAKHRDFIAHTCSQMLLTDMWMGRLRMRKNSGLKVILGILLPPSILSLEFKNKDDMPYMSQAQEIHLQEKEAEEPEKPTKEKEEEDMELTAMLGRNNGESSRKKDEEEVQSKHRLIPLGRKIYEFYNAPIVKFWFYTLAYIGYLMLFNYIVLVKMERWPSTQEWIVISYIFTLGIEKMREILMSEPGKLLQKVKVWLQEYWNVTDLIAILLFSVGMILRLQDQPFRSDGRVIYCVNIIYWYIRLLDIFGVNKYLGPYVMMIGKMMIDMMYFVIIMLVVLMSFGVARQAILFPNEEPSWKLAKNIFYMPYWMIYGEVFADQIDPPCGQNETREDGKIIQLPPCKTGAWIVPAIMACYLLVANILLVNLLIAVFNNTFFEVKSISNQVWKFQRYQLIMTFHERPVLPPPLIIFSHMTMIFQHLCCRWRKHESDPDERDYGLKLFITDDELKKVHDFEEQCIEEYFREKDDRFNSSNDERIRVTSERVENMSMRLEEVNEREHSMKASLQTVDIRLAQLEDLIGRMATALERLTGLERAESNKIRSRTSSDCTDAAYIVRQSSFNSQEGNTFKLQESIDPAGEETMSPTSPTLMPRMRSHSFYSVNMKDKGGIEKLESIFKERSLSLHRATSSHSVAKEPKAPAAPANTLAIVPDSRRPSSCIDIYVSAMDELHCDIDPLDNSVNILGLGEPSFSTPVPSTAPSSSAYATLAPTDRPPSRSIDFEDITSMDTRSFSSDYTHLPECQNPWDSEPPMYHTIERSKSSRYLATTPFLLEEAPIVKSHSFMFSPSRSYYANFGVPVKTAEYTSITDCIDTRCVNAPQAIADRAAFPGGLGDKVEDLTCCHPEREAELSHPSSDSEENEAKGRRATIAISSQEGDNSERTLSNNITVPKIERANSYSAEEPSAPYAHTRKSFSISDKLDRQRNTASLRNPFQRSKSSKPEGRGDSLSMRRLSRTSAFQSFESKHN

[5] = in vivo; details: male, C57BL/6, mouse; for Vd: C57BL/6, 2 mpk

## O=c1c2c3nc(n2Cc2ccc(Cl)cc2)Oc2ccc(F)c(c2)OCCCCCCn3c(=O)n1CCCO [JDIC-127]
[1]; HEK293T, 100 nmol/L Englerin A, read-out: IC50, inhibition of TRPC5, calcium flux assay
  IC50: 0.066 nM
[1]; at concentrations of 1.4 nmol/L or higher
  inhibition of TRPC5 calcium influx: More than 80%
[1]; calcium flux, SAR
  fold increase in activity (vs compound 6): approximately 15 fold
[2]
  inhibition at 10 µM: -0.83%
[3]
  IC50: 0.358 nM
[4]
  inhibition at 10 µM: < 33%
[5]
  bioavailability: 7.5%
[5]; iv, 2 mg/kg
  C0: 1450 ng/mL
  MRT: 52.8 min
  clearance: 66.8 mL/min/kg
  half-life: 59.4 min
[5]; iv, 2 mg/kg, VSS, i.v.
  Vd: 3.51 L/kg
[5]; iv, 2 mg/kg, Vd
  Vd: 5.71 L/kg
[5]; po, 10 mg/kg
  Cmax: 177 ng/mL
  MRT: 114 min
  Tmax: 15 min
  half-life: 84 min
